“Also recorded” adds a separate entry of the source. Where two headings read alike, the source gives them in different places.
What was measured:
M21 melanoma cells = conditions: 20 ug/ml; doses of 0, 5, and 10 Gy; cited from earlier work
ECV304 endothelial cells = test: FGF2 release from ECV304 endothelial cells (ELISA); type: cell-based
Protocol: ECV304 endothelial cells were cultured in M199 medium supplemented with 10% fetal bovine serum. […] After 72 hours, the supernatants were harvested and assays for FGF performed without dilution using a commercial ELISA system (R&D Systems) (See Davis et al., Circ Res 94:1500-1506 (2004)).

[1] = tested on: chick chorioallantoic membrane (CAM) blood vessel branch points; test: Chick chorioallantoic membrane (CAM) model of angiogenesis; type: in vivo; conditions: for generation of new blood vessels from existing vessels promoted: 10^−7-10^−9 M
Protocol: In vivo neovascularization was examined by methods described previously. 9-12 Ten-day-old chick embryos were purchased from SPAFAS (Preston, Conn.) and incubated at 37° C. with 55% relative humidity. A hypodermic needle was used to make a small hole in the shell concealing the air sac, and a second hole was made on the broad side of the egg, directly over an avascular portion of the embryonic membrane that was identified by candling. A false air sac was created beneath the second hole by the application of negative pressure at the first hole, causing the CAM to separate from the shell. […] Thyroid hormone, hormone analogs, FGF2 or control solvents, and inhibitors were then applied to the disks and the disks allowed to dry. The disks were then suspended in PBS and placed on growing CAMs. […] At 24 hours, the MAPK cascade inhibitor PD 98059 was also added to CAMs topically by means of the filter disks. […] The number of vessel branch points contained in a circular region equal to the area of each filter disk were counted. […] In addition, each experiment was performed 3 times. The resulting angiogenesis index is the mean±SEM of new branch points.

ERK1/2 = test: MAPK activation in ECV304 cells (immunoblot of nuclear phosphorylated ERK1/2); type: cell-based; conditions: for effect on T4-induced ERK1/2 activation (in words): PD 98059 30 μmol/L or CGP41251 100 nmol/L for 30 minutes, then 10^−7 M T4 for 15 minutes
Protocol: ECV304 endothelial cells were cultured in M199 medium with 0.25% hormone-depleted serum 13 for 2 days. […] Nuclear fractions were prepared from all samples by the method reported previously (see Li et al., Carcinogenesis 29:62-69 (2008)), the proteins separated by polyacrylamide gel electrophoresis, and transferred to membranes for immunoblotting with antibody to phosphorylated ERK 1/2.

V-79 cells = conditions: cited from earlier work
[2] = tested on: transplantable liver tumor; conditions: cited from earlier work
[3] = tested on: glioblastoma (GBM) patients; conditions: induction of mild hypothyroidism; cited from earlier work
Morris 7800 hepatoma = conditions: PTU 0.1%; cited from earlier work
SF763 glioblastoma cells = conditions: 85 μM, 16 hours at 37° C., cited from earlier work
[4] = tested on: matrigel plug angiogenesis; test: Mouse matrigel model of angiogenesis (plug hemoglobin); type: in vivo, mice (C57BL/6NCr); conditions: numbers are Tetrac analogs of Example 13; for Mean inhibition of angiogenesis (%) / Hemoglobin (mg/mL) ± SEM: FGF 100 ng + test substance 10 μg/plug; for Hemoglobin (mg/mL) ± SEM: n = 7-14
Protocol: Normal male mice (C57BL/6NCr) 6-8 weeks of age and weighing ˜20 g were purchased from Taconic farm. Animals were housed 4 per cage, in controlled conditions of temperature (20-24° C.); humidity (60-70%) and 12 hrs. light/dark cycle provided with food and water ad libitum. […] Aliquots of matrigel were placed into cold polypropylene tubes to prevent the matrigel from solidifying and the angiogenesis promoter added to matrigel with or without agonist. Mice were treated daily. Matrigel was subcutaneously injected as triple injection per animal at 100 μL/animal. At day 14 post plug implant all animals were killed in CO2 chamber and matrigel plugs were collected. Plug hemoglobin content was analyzed from three implants/mice (n=6 per group) to measure angiogenesis.
The matrigel plugs dissected from the mice were carefully stripped of any remaining peritoneum. The plugs were placed into 0.5 mL tube of ddH2O and homogenized for 5-10 min. […] Absorbance was read with a Microplate Manager ELISA reader at 540 nm. […] Hemoglobin concentration is a reflection of the number of blood vessels in the plugs.

pKa of functional groups = type: physicochemical; conditions: estimated
FGF2 cDNA = test: RT-PCR of FGF2 in ECV304 cells; type: cell-based; conditions: T4 10^−7 mol/L, apparent by 6 hours, further enhanced by 48 hours
Protocol: RNA (1 μg) was subjected to reverse transcription-polymerase chain reaction (RT-PCR) using the Access RT-PCR system (Promega). Total RNA was reverse transcribed into cDNA at 48° C. for 45 minutes, then denatured at 94° C. for 2 minutes. Second-strand synthesis and PCR amplification were performed for 40 cycles with denaturation at 94° C. for 30 s, annealing at 60° C. for 60 s, and extension at 68° C. for 120 s, with final ex-tension for 7 minutes at 68° C. after completion of all cycles. PCR primers for FGF2 were as follows: FGF2 sense strand 5′-[…]-3′ (SEQ ID NO:1), antisense strand 5′ […]-3′ (SEQ ID NO:2); the length of the PCR product was 734 bp. Primers for GAPDH included the sense strand 5′-[…]-3′ (SEQ ID NO:3), and antisense strand 5′-[…]-3′ (SEQ ID NO:4); the length of the PCR product was 218 bp. […] The target bands of the gel were quantified using LabImage software (Kapelan), and the value for [FGF2/GAPDH]X10 calculated for each time point.

## CNTO 95: human anti-αv integrin monoclonal antibody
M21 melanoma cells
  increase in sensitivity (in vitro apoptosis) by a factor of: 2 fold

## COc1cccc(-c2cc(=O)c3ccccc3o2)c1N [PD 98059]
ECV304 endothelial cells; T3 + PD 98059 (2 μmol/L)
  FGF2 (pg/mL/10^6 cells): 28.4 ± 3.2 pg/mL/10^6 cells
ECV304 endothelial cells; T3 + PD 98059 (20 μmol/L)
  FGF2 (pg/mL/10^6 cells): 21.7 ± 3.5 pg/mL/10^6 cells
ECV304 endothelial cells; T4 + PD 98059 (2 μmol/L)
  FGF2 (pg/mL/10^6 cells): 26.5 ± 4.5 pg/mL/10^6 cells
ECV304 endothelial cells; T4 + PD 98059 (20 μmol/L)
  FGF2 (pg/mL/10^6 cells): 23.2 ± 4.8 pg/mL/10^6 cells
[1]; PD 98059 3 μmol/L, T4 0.1 μmol/L and T3 1 nmol/L
  effect on angiogenesis stimulated by T4 and T3 together (in words): completely blocked; also recorded: fully inhibited
[1]; PD 98059, FGF2 1 μg/mL
  effect on FGF2 stimulation of branch formation (in words): effectively blocked
ERK1/2
  effect on T4-induced ERK1/2 activation (in words): inhibited

## CO[C@@H]1[C@H](N(C)C(=O)c2ccccc2)C[C@H]2O[C@]1(C)n1c3ccccc3c3c4c(c5c6ccccc6n2c5c31)C(=O)NC4 [CGP41251]
ERK1/2
  effect on T4-induced ERK1/2 activation (in words): blocked

## NC(=O)c1cccc(N)c1 [Compound 3AB, 3-aminobenzamide]
V-79 cells; Thraves et al.
  inhibition of PLDR: ~70%
V-79 cells; with 3AB, without 3.4
  Dq value: 1 Gy

## CCCc1cc(=O)[nH]c(=S)[nH]1 [PTU, 6-N-propyl-2-thiouracil]
[2]; 10 Gy of x-rays plus 0.05% PTU in the drinking water, control 6.2, x-rays alone 11.2
  time needed to grow from approximately 270 mm^3 to 900 mm^3: 17.8 days
[2]; in vivo
  growth rate with PTU alone (in words): no difference in growth rate from control neoplasms
[3]
  improvement of the duration of survival: 3 fold
Morris 7800 hepatoma
  increase in survival: approximately 1.3 fold
[1]; filter disks pretreated with 1 mmol/L PTU
  effect of the presence of PTU on the effect of T4 (in words): did not reduce the effect of T4

## CC(C)[C@H]1C(=O)N[C@@H](CCCN=C(N)N)C(=O)NCC(=O)N[C@@H](CC(=O)O)C(=O)N[C@H](Cc2ccccc2)C(=O)N1C [EMD121974]
SF763 glioblastoma cells
  increase of α: 4.4 fold
SF763 glioblastoma cells; without approximately 0.04
  α component in the LQ survival equation: ~0.18 Gy^−1

## CC(C)[Si](OC(=O)Cc1cc(I)c(Oc2cc(I)c(O)c(I)c2)c(I)c1)(C(C)C)C(C)C [Tetrac analog 5, Triisopropylsilyl-2-(4-(4-hydroxy-3,5-diiodophenoxy)-3,5-diiodophenyl)acetate]
other
  melting point: 146 °C
[4]
  Mean inhibition of angiogenesis (%): 104 ± 14%
  Hemoglobin (mg/mL) ± SEM: 0.2 ± 0.1 mg/mL
  inhibition of FGF-induced angiogenesis (in words): strong
[1]; FGF (1.25 μg/ml) + test substance, 10 μg/plug per footnote, numbers are Tetrac analogs of Example 13
  Mean % Inhibition: 75 ± 19%
[1]; FGF (1.25 μg/ml) + test substance, 10 μg/plug per footnote, numbers are Tetrac analogs of Example 13, n = 8, PBS 73 ± 6, FGF 130 ± 11
  Mean Branch points: 87 ± 11

## O=C(Cc1cc(I)c(Oc2cc(I)c(OCC3CO3)c(I)c2)c(I)c1)NC1CCCCC1 (stereo not shown) [Tetrac analog 6, N-cyclohexyl-2-(4-(3,5-diiodo-4-(oxiran-2-ylmethoxy)phenoxy)-3,5-diiodophenyl)acetamide]
other
  melting point: 242 °C
[4]
  Mean inhibition of angiogenesis (%): 80 ± 16%
  Hemoglobin (mg/mL) ± SEM: 0.7 ± 0.1 mg/mL
  inhibition of FGF-induced angiogenesis (in words): strong
[1]; numbers are Tetrac analogs of Example 13
  inhibition of angiogenesis in the CAM assay (in words): not as strong as compounds 3, 5, 7, and 9

## N[C@@H](Cc1cc(I)c(Oc2cc(I)c(O)c(I)c2)c(I)c1)C(=O)O [Compound T4, L-thyroxine]
[1]
  generation of new blood vessels from existing vessels promoted: two- to three-fold
[1]; T4 0.05 μmol/L + FGF2 0.5 μg/mL
  effect on the angiogenic effect of sub-maximal FGF2 (in words): enhanced
ERK1/2; T4 10^−7 mol/L
  appearance of phosphorylated ERK1/2 in cell nuclei: ≤ 15 min
  time of maximal level of nuclear phosphorylated ERK1/2: 30 min
ERK1/2; T4 10^−7 mol/L + FGF2 10 ng/mL, 15-minute co incubation
  effect on MAPK activation caused by FGF2 (in words): enhanced the MAPK activation caused by FGF2
pKa of functional groups; read-out: pKa of the COOH (carboxylic acid) group
  pKa: ~2
pKa of functional groups; read-out: pKa of the NH2 (amino) group
  pKa: ~9
FGF2 cDNA
  abundance of FGF2 cDNA, corrected for GAPDH content (in words): increase in abundance of FGF2 cDNA

## N[C@@H](Cc1cc(I)c(Oc2ccc(O)c(I)c2)c(I)c1)C(=O)O [Compound T3, 3,5,3′-triiodo-L-thyronine]
ECV304 endothelial cells; T3 (0.01 μmol/L), 3 days, Control 27.7 ± 3.1
  FGF2 (pg/mL/10^6 cells): 98.8 ± 0.5 pg/mL/10^6 cells
[1]; 1 nmol/L (1 nM) for 3 days, vs PBS
  increase in blood vessel branch formation: 2 fold
[1]
  generation of new blood vessels from existing vessels promoted: two- to three-fold

Source: patent publication US8802240B2, “Uses of formulations of thyroid hormone analogs and nanoparticulate forms thereof to increase chemosensitivity and radiosensitivity in tumor or cancer cells” (Nanopharmaceuticals LLC, priority 2011, dated 2014)
